# Laboratory results taken from the supplement of paper PMC10307832.
# Legend:
# Assay in all cases: relative viability (nuclei count vs DMSO), 5 days (fraction); higher = more cells survive
# HCC-78 = tested on: HCC-78
# Summary of the method: (§1)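 Relative viability is defined as nuclei in treated wells over nuclei in vehicle wells. Duplicate plates were run and medians reported. Lung cancer cell lines in 1536-well plates were dosed by pin tool one day after seeding, with one drug or with a fixed anchor-drug dose plus five library-drug doses (not always all listed) in √10 steps, and nuclei were counted after 5 days.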
# NCI-H1975 = tested on: NCI-H1975
# Summary of the method: as §1
# NCI-H2126 = tested on: NCI-H2126
# Summary of the method: as §1
# EMC-BAC-2 = tested on: EMC-BAC-2
# Summary of the method: as §1
# NCI-H1944 = tested on: NCI-H1944
# Summary of the method: as §1
# HCC-366 = tested on: HCC-366
# Summary of the method: as §1
# HCC-44 = tested on: HCC-44
# Summary of the method: as §1
# NCI-H838 = tested on: NCI-H838
# Summary of the method: as §1
# NCI-H1355 = tested on: NCI-H1355
# Summary of the method: as §1
# NCI-H2087 = tested on: NCI-H2087
# Summary of the method: as §1
# NCI-H2347 = tested on: NCI-H2347
# Summary of the method: as §1
# NCI-H2009 = tested on: NCI-H2009
# Summary of the method: as §1
# NCI-H1734 = tested on: NCI-H1734
# Summary of the method: as §1
# NCI-H522 = tested on: NCI-H522
# Summary of the method: as §1
# NCI-H727 = tested on: NCI-H727
# Summary of the method: as §1
# HOP-62 = tested on: HOP-62
# Summary of the method: as §1
# PC-3 [JPC-3] = tested on: PC-3 [JPC-3]
# Summary of the method: as §1
# ChaGo-K-1 = tested on: ChaGo-K-1
# Summary of the method: as §1
# SW 1573 = tested on: SW 1573
# Summary of the method: as §1
# LC-2-ad = tested on: LC-2-ad
# Summary of the method: as §1
# NCI-H441 = tested on: NCI-H441
# Summary of the method: as §1
# UMC-11 = tested on: UMC-11
# Summary of the method: as §1
# SK-LU-1 = tested on: SK-LU-1
# Summary of the method: as §1
compound,measurement,setting,value
Oc1nc(-c2ccc(C(F)(F)F)cc2)nc2c1CSCC2 [XAV939] + CC(=O)Nc1cccc(-n2c(=O)n(C3CC3)c(=O)c3c(Nc4ccc(I)cc4F)n(C)c(=O)c(C)c32)c1 [Trametinib] (partner 0.02 µM),relative viability,HCC-78; first compound 0.08 µM,0.827
same,relative viability,HCC-78; first compound 0.253 µM,0.642
same,relative viability,HCC-78; first compound 0.8 µM,0.842
same,relative viability,HCC-78; first compound 2.53 µM,0.535
same,relative viability,NCI-H1975; first compound 0.08 µM,0.359
same,relative viability,NCI-H1975; first compound 0.253 µM,0.296
same,relative viability,NCI-H1975; first compound 0.8 µM,0.35
same,relative viability,NCI-H1975; first compound 2.53 µM,0.275
same,relative viability,NCI-H2126; first compound 0.08 µM,0.458
same,relative viability,NCI-H2126; first compound 0.253 µM,0.44
same,relative viability,NCI-H2126; first compound 0.8 µM,0.478
same,relative viability,NCI-H2126; first compound 2.53 µM,0.392
same,relative viability,EMC-BAC-2; first compound 0.08 µM,0.972
same,relative viability,EMC-BAC-2; first compound 0.253 µM,0.875
same,relative viability,EMC-BAC-2; first compound 0.8 µM,0.78
same,relative viability,EMC-BAC-2; first compound 2.53 µM,0.671
same,relative viability,NCI-H1944; first compound 0.08 µM,0.418
same,relative viability,NCI-H1944; first compound 0.253 µM,0.388
same,relative viability,NCI-H1944; first compound 0.8 µM,0.412
same,relative viability,NCI-H1944; first compound 2.53 µM,0.292
same,relative viability,HCC-366; first compound 0.08 µM,0.307
same,relative viability,HCC-366; first compound 0.253 µM,0.28
same,relative viability,HCC-366; first compound 0.8 µM,0.327
same,relative viability,HCC-366; first compound 2.53 µM,0.259
same,relative viability,HCC-44; first compound 0.08 µM,1.04
same,relative viability,HCC-44; first compound 0.253 µM,0.843
same,relative viability,HCC-44; first compound 0.8 µM,0.927
same,relative viability,HCC-44; first compound 2.53 µM,0.924
same,relative viability,NCI-H838; first compound 0.08 µM,0.595
same,relative viability,NCI-H838; first compound 0.253 µM,0.441
same,relative viability,NCI-H838; first compound 0.8 µM,0.392
same,relative viability,NCI-H838; first compound 2.53 µM,0.39
same,relative viability,NCI-H1355; first compound 0.08 µM,0.367
same,relative viability,NCI-H1355; first compound 0.253 µM,0.336
same,relative viability,NCI-H1355; first compound 0.8 µM,0.38
same,relative viability,NCI-H1355; first compound 2.53 µM,0.291
same,relative viability,NCI-H2087; first compound 0.08 µM,0.198
same,relative viability,NCI-H2087; first compound 0.253 µM,0.168
same,relative viability,NCI-H2087; first compound 0.8 µM,0.215
same,relative viability,NCI-H2087; first compound 2.53 µM,0.147
same,relative viability,NCI-H2347; first compound 0.08 µM,0.302
same,relative viability,NCI-H2347; first compound 0.253 µM,0.278
same,relative viability,NCI-H2347; first compound 0.8 µM,0.308
same,relative viability,NCI-H2347; first compound 2.53 µM,0.236
same,relative viability,NCI-H2009; first compound 0.08 µM,0.287
same,relative viability,NCI-H2009; first compound 0.253 µM,0.281
same,relative viability,NCI-H2009; first compound 0.8 µM,0.19
same,relative viability,NCI-H2009; first compound 2.53 µM,0.217
same,relative viability,NCI-H1734; first compound 0.08 µM,0.77
same,relative viability,NCI-H1734; first compound 0.253 µM,0.616
same,relative viability,NCI-H1734; first compound 0.8 µM,0.593
same,relative viability,NCI-H1734; first compound 2.53 µM,0.647
same,relative viability,NCI-H522; first compound 0.08 µM,0.88
same,relative viability,NCI-H522; first compound 0.253 µM,0.713
same,relative viability,NCI-H522; first compound 0.8 µM,0.888
same,relative viability,NCI-H522; first compound 2.53 µM,0.725
same,relative viability,NCI-H727; first compound 0.08 µM,0.361
same,relative viability,NCI-H727; first compound 0.8 µM,0.398
same,relative viability,NCI-H727; first compound 2.53 µM,0.403
same,relative viability,HOP-62; first compound 0.08 µM,0.392
same,relative viability,HOP-62; first compound 0.253 µM,0.329
same,relative viability,HOP-62; first compound 0.8 µM,0.411
same,relative viability,HOP-62; first compound 2.53 µM,0.312
same,relative viability,PC-3 [JPC-3]; first compound 0.253 µM,0.613
same,relative viability,PC-3 [JPC-3]; first compound 0.8 µM,0.722
same,relative viability,PC-3 [JPC-3]; first compound 2.53 µM,0.677
same,relative viability,ChaGo-K-1; first compound 0.08 µM,0.977
same,relative viability,ChaGo-K-1; first compound 0.253 µM,0.82
same,relative viability,ChaGo-K-1; first compound 0.8 µM,0.907
same,relative viability,ChaGo-K-1; first compound 2.53 µM,0.802
same,relative viability,SW 1573; first compound 0.08 µM,0.63
same,relative viability,SW 1573; first compound 0.253 µM,0.545
same,relative viability,SW 1573; first compound 0.8 µM,0.608
same,relative viability,SW 1573; first compound 2.53 µM,0.425
same,relative viability,LC-2-ad; first compound 0.08 µM,0.932
same,relative viability,LC-2-ad; first compound 0.253 µM,0.899
same,relative viability,LC-2-ad; first compound 0.8 µM,0.922
same,relative viability,LC-2-ad; first compound 2.53 µM,0.79
same,relative viability,NCI-H441; first compound 0.08 µM,0.513
same,relative viability,NCI-H441; first compound 0.253 µM,0.366
same,relative viability,NCI-H441; first compound 0.8 µM,0.414
same,relative viability,NCI-H441; first compound 2.53 µM,0.484
same,relative viability,UMC-11; first compound 0.08 µM,0.692
same,relative viability,UMC-11; first compound 0.253 µM,0.703
same,relative viability,UMC-11; first compound 0.8 µM,0.879
same,relative viability,UMC-11; first compound 2.53 µM,0.632
same,relative viability,SK-LU-1; first compound 0.08 µM,0.537
same,relative viability,SK-LU-1; first compound 0.253 µM,0.44
same,relative viability,SK-LU-1; first compound 0.8 µM,0.543
same,relative viability,SK-LU-1; first compound 2.53 µM,0.582
